Three compounds from patent US20090048160A1, “Antimicrobial activity of bovine bactericidal/permeability-increasing protein (BPI)-derived peptides against Gram-negative bacterial mastitis isolates” (priority 2007, published 2009) can be followed below.

≈ marks a conversion by molar mass, not a printed value. Where two headings read alike, the source gives them in different places.

One experiment has as its system Enterobacter cloacae. As to the kind of experiment: microbe, parasite or virus in culture. It is filed as cell-based. The source says:
(§1) Bacterial isolates of Escherichia coli, Klebsiella pneumonia, Serratia marcescens, Pseudomonas aeruginosa, Enterobacter cloacae, and Enterobacter aerogenes, which were obtained from clinical cases of bovine mastitis, were used to assess the bactericidal activity of peptides in a broth microdilution assay. Isolates were obtained from repositories at Cornell University (gift of Dr. Y. H. Schukken; Quality Milk Production Services Program, Cornell University, Ithaca N.Y.) and the USDA Beltsville Agricultural Research Center. […] A. J. Bramley, Institute for Animal Health, Compton Laboratory, Newbury, England), which was originally isolated from a clinical case of mastitis ([…]. Dairy Res. 43: 205-211) was also used to assess the bactericidal activity of the peptides in biological fluids. Reference strains of E. coli (ATCC 25922) and Staphylococcus aureus (ATCC 29213) were obtained from a commercial source (American Type Culture Collection (ATCC), Manassas, Va.). To obtain fresh inoculums for evaluation, a sterile loop of each bacterial glycerol stock was streaked on a blood agar plate. After an overnight incubation at 35° C., a single uniform colony was picked and sub-passaged by streaking on a new blood agar plate and incubating the plate overnight at 35° C. To evaluate the antimicrobial activity of the peptides against various clinical mastitis bacterial isolates, the minimum inhibitory concentration (MIC) and the minimum bactericidal concentration (MBC) of these peptides against the isolates were determined using a standardized broth microdilution assay. In addition to the mastitis isolates, E. coli (ATCC 25922) and S. aureus (ATCC 29213) reference strains were evaluated. […] The assays were performed in accordance with Clinical and Laboratory Standards Institute (CLSI) [formerly National Committee for Clinical Laboratory Standards (NCCLS)] guidelines (National Committee for Clinical Laboratory Standards. 1999. Methods for Determining Bacterial Activity of Antimicrobial Agents: Approved Guideline. Wayne, Pa.; National Committee for Clinical Laboratory Standards. 2002. Performance Standards for Antimicrobial Disk and Dilution Susceptibility Tests for Bacteria Isolated from Animals: Approved Standard. 2nd Edition, Wayne, Pa.). […] The bacterial suspension was then diluted 100-fold in cation-adjusted Mueller-Hinton broth to reach a final inoculum concentration of 10^6 CFU/ml. […] A negative control column was included in the plate that included 100 μl of broth alone. The plates were incubated for 18 h at 35° C. with ambient air circulation and without shaking. The wells were subsequently inspected for cloudiness and pellet formation using a magnifying glass plate reader. The lowest concentration at which no pellet or cloudiness was apparent in a given well was identified as the MIC. […] The plates were incubated overnight at 35° C. and colonies subsequently enumerated. The MBC values were determined as the lowest concentration at which ≧99.9% of inoculated bacteria were killed. All assays were performed in triplicate and the MIC and MBC range reported.

The test system of another experiment is Escherichia coli. As to the kind of experiment: microbe, parasite or virus in culture. The format is cell-based. The conditions noted are these: Escherichia coli; for MIC: read-out: MIC.
Source text: as §1

The next experiment relates to Klebsiella pneumoniae. As to the kind of experiment: microbe, parasite or virus in culture. The format is cell-based. The settings on record: Klebsiella pneumoniae, read-out: MIC.
Source text: as §1

For another experiment, the system named is Pseudomonas aeruginosa. As to the kind of experiment: microbe, parasite or virus in culture. It is filed as cell-based. The conditions noted are these: Pseudomonas aeruginosa, read-out: MIC.
Source text: as §1

For a further experiment, the system named is Serratia marcescens. Kind of experiment: microbe, parasite or virus in culture. It is filed as cell-based. The settings on record: Serratia marcescens, read-out: MIC.
Source text: as §1

Another experiment relates to Staphylococcus aureus. As to the kind of experiment: microbe, parasite or virus in culture. The format is cell-based. The settings on record: ATCC29213; Staphylococcus aureus ATCC 29213; read-out: MIC.
Source text: as §1

Experiment [1] concerns bacterial LPS derived from E. coli 0111:B4. Kind of experiment: LPS neutralization, Limulus amebocyte lysate (LAL) assay. The conditions noted are these: 1 ng LPS. It is filed as biochemical. The method, then: FIG. 1 depicts the mean (±S.E.) percent neutralization of bacterial LPS bioactivity as determined with the Limulus amebocyte lysate assay. Increasing concentrations of peptides or polymixin B were incubated with 1 ng of E. coli-derived LPS for 30 min. Following incubation, the amount of free LPS was determined by extrapolation from a standard curve and the percent of bound (neutralized) LPS was calculated.
The ability of the peptides to neutralize LPS was determined using a commercially available Limulus amebocyte lysate (LAL) assay (Cambrex BioScience Walkersville, Inc., Walkersville, Md.). As a positive control, polymyxin B (Sigma Chemical Co.) was evaluated in parallel with the peptides. Increasing concentrations of peptides or polymyxin B were incubated with 1 ng of highly purified bacterial LPS (Sigma Chemical Co.), derived from E. coli 0111:B4, in a 500 μl reaction volume of endotoxin-free water for 30 min at 37° C. while shaking at 100 rpm. Following the incubation, the amount of free LPS was determined in each sample according to the manufacturer's instructions. Briefly, 50 μl of the above mixture was placed into a 96-well microtiter plate and the reaction initiated by the addition of an equal volume of amoebocyte lysate. Following an incubation at 37° C. for 10 min, 100 μl of chromogenic substrate was added and the plate incubated for 5-10 min at 37° C. The reaction was stopped by the addition of 50 μl of glacial acetic acid and the absorbance measured at a wavelength of 405 nm on a microplate reader (Biotec Instruments, Inc., Winooski, Vt.). The amount of non-bound LPS was extrapolated from a standard curve and the percent inhibition calculated according to the following formula: […]
To determine whether the bBPI peptides were able to neutralize LPS, increasing concentrations of the peptides were incubated with LPS (1 ng) and the resulting mixture assayed with the LAL assay (FIG. 1). As a positive and negative control, respectively, polymyxin B and a non-BPI-derived peptide were also assayed. […] In contrast, bBPI142-169 and bBPI90-99,148-161 were able to neutralize ≧93% of LPS activity at peptide concentrations of 30 and 100 μg/ml, respectively.

For `CN(C)[C@@H]1C(O)=C(C(N)=O)C(=O)[C@@]2(O)C(O)=C3C(=O)c4c(O)cccc4[C@@](C)(O)[C@H]3C[C@@H]12` [Tetracycline, reference compound], the MIC was 4 µg/mL (≈ 9 µM) in the experiment on Enterobacter cloacae (Enterobacter cloacae Isolate #2, read-out: MIC); 4 µg/mL (≈ 9 µM) with Enterobacter cloacae (Enterobacter cloacae Isolate #4); 0.5 to 1 µg/mL (≈ 1.13 to 2.25 µM) with Escherichia coli (ATCC25922, Escherichia coli ATCC 25922); 4 µg/mL (≈ 9 µM) in the experiment with Escherichia coli (Escherichia coli Isolate #1); 4 µg/mL (≈ 9 µM) with Escherichia coli (Escherichia coli Isolate #2); 4 µg/mL (≈ 9 µM) in the experiment with Escherichia coli (Escherichia coli Isolate #3). For the same compound, the MIC in the experiment with Escherichia coli (Escherichia coli Isolate #4) came out at 4 µg/mL (≈ 9 µM); in the experiment with Escherichia coli (Escherichia coli Isolate #5), 4 µg/mL (≈ 9 µM); in the experiment on Escherichia coli (Escherichia coli Strain P4) it was 1 µg/mL (≈ 2.25 µM); in the experiment on Klebsiella pneumoniae (Klebsiella pneumoniae Isolate #1), 64 µg/mL (≈ 144 µM); in the experiment on Klebsiella pneumoniae (Klebsiella pneumoniae Isolate #3) it was 1 µg/mL (≈ 2.25 µM); in the experiment with Klebsiella pneumoniae (Klebsiella pneumoniae Isolate #4) it was 64 µg/mL (≈ 144 µM). In addition, the MIC in the experiment with Klebsiella pneumoniae (Klebsiella pneumoniae Isolate #5) is 16 µg/mL (≈ 36 µM); in the experiment with Klebsiella pneumoniae (Klebsiella pneumoniae Isolate #6), 0.5 µg/mL (≈ 1.13 µM); with Pseudomonas aeruginosa (Pseudomonas aeruginosa Isolate #1) it was 32 µg/mL (≈ 72 µM); in the experiment on Pseudomonas aeruginosa (Pseudomonas aeruginosa Isolate #2), 16 µg/mL (≈ 36 µM); in the experiment with Pseudomonas aeruginosa (Pseudomonas aeruginosa Isolate #3), 32 µg/mL (≈ 72 µM); in the experiment on Pseudomonas aeruginosa (Pseudomonas aeruginosa Isolate #4) it was 16 µg/mL (≈ 36 µM). The MIC in the experiment with Pseudomonas aeruginosa (Pseudomonas aeruginosa Isolate #5) turned out to be 32 µg/mL (≈ 72 µM); with Pseudomonas aeruginosa (Pseudomonas aeruginosa Isolate #6) it was 16 µg/mL (≈ 36 µM); with Serratia marcescens (Serratia marcescens Isolate #1), 32 µg/mL (≈ 72 µM); with Serratia marcescens (Serratia marcescens Isolate #2), 64 µg/mL (≈ 144 µM); in the experiment with Serratia marcescens (Serratia marcescens Isolate #3), 64 µg/mL (≈ 144 µM); with Serratia marcescens (Serratia marcescens Isolate #4) it was 64 µg/mL (≈ 144 µM). The MIC with Serratia marcescens (Serratia marcescens Isolate #5) is 64 µg/mL (≈ 144 µM); in the experiment with Serratia marcescens (Serratia marcescens Isolate #6) it was 64 µg/mL (≈ 144 µM); in the experiment on Staphylococcus aureus, 0.25 to 0.5 µg/mL (≈ 0.563 to 1.13 µM). The MBC in the experiment on Escherichia coli (ATCC25922, Escherichia coli ATCC 25922, read-out: MBC) came to 64 µg/mL (≈ 144 µM).
As to “MCHWAGGASNTGDARGDV FGKQAG (MCHWAGGASNTGDARGDVFGKQAG; listed as Bos sp.) [control peptide, non-BPI-derived control peptide provided by the peptide synthesis company; negative control, reference compound]”, the “inhibition of LPS activity” value in experiment [1] (100 μg/ml, 30 min) is on record as “no inhibitory effect”.
For polymyxin B [reference compound], the “inhibition of LPS activity (in words)” value in experiment [1] (increasing concentrations) is recorded as “inhibited LPS activity in dose-dependent manner”.
